From patent publication US10155798B2, “Anti-obesity compounds derived from neuromedin U” (The Regents of the University of California, priority 2013, dated 2018)
*1 amine or outer side, *2 acyl side, *3 side chain or, on linkers, in order; H or OH if unused. Where a SMILES comes first, the peptide text is derived from it. Bridges are numbered along the chain shown (N, C = ends). [ ]: non-standard residue; d: D form. The star is where a group is joined. mXylylene(5-CH2SC16H33) = CCCCCCCCCCCCCCCCSCc1cc(C[*:1])cc(C[*:2])c1; X1 = CCCCCCCCCCCCCCCCN(CCCCCCCCCCCCCCCC)CCCCCC(=O)*; Tic = O=C(O)[C@@H]1Cc2ccccc2CN1; Aib = CC(C)(N)C(=O)O; Ahx = NCCCCCC(=O)O

Key:
[1] = target: T1, NMUR1 (neuromedin U 1 receptor) (Homo sapiens, UniProt Q9HB89); test: Calcium mobilization assay, HEK-NMU1 cells; assay type: cell-based; conditions: HEK293 cells expressing NMU1 receptor, NA = not active
T1 construct: expressed in transfected cells; host or cells: HEK293 (HEK-NMU1)
T1 sequence (Q9HB89 1-426): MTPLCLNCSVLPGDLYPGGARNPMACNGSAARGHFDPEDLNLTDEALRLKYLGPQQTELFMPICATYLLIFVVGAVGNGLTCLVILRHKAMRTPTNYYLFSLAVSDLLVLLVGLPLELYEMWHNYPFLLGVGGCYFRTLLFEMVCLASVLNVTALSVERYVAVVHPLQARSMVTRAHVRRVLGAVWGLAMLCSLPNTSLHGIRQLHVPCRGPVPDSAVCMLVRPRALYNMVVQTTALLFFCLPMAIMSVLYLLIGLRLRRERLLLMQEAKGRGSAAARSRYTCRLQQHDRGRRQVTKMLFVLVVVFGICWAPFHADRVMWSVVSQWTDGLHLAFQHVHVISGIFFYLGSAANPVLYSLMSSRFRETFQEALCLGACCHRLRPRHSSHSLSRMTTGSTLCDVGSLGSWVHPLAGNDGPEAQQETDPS
Method: (§1) To test whether neuromedin U can be modified/derivatized to yield truncated bioactive compound(s) that may be useful as therapeutics, we synthesized a small library (25 peptides) of hNMU analogs utilizing various stabilization protocols, including: cyclization, lipidation, introduction of α,α-disubstituted and N-methylated amino acids, retro-inverso-approach, and combination of such (see Table 1). Subsequently all analogues were tested against human neuromedin U receptors (NMUR1 and NMUR2) in calcium mobilization assay (collaboration with Dr Gary Willars, University of Leicester, UK).
HEK293 cells expressing either the neuromedin U 1 receptor or neuromedin U 2 receptor (HEK-NMU1 and HEK-NMU2 respectively) were grown to approximately 90% confluence in ELISA strip plates (96-well format) pre-coated with poly-D-lysine (0.1% w/v) and loaded for 45 min at 37° C. with 2 iM fluo-4-AM in Krebs'-HEPES buffer with bovine serum albumin (KHB-BSA; composition: 10 mM HEPES; 4.2 mM NaHCO3; 11.7 mM D-glucose; 1.18 mM MgSO4.7H2O; 1.18 mM KH2PO4; 4.69 mM KCl; 118 mM NaCl; 1.3 mM CaCl2.2H2O; 0.1% (w/v) BSA; pH 7.4). Monolayers were then washed and equilibrated for 5 min at 37° C. in 100 il KHB-BSA for subsequent recording of fluorescence as an index of intracellular [Ca^2+] ([Ca^2+]i) using a microplate reader (NOVOstar; BMG LABTECH, Aylesbury, U.K.). […]

[2] = target: T2, NMUR2 (neuromedin U 2 receptor) (Homo sapiens, UniProt Q9GZQ4); test: Calcium mobilization assay, HEK-NMU2 cells; assay type: cell-based; conditions: HEK293 cells expressing NMU2 receptor, NA = not active
T2 construct: expressed in transfected cells; host or cells: HEK293 (HEK-NMU2)
Method: as §1
HEK293 cells expressing either the neuromedin U 1 receptor or neuromedin U 2 receptor (HEK-NMU1 and HEK-NMU2 respectively) were grown to approximately 90% confluence in ELISA strip plates (96-well format) pre-coated with poly-D-lysine (0.1% w/v) and loaded for 45 min at 37° C. with 2 iM fluo-4-AM in Krebs'-HEPES buffer with bovine serum albumin (KHB-BSA; composition: 10 mM HEPES; 4.2 mM NaHCO3; 11.7 mM D-glucose; 1.18 mM MgSO4.7H2O; 1.18 mM KH2PO4; 4.69 mM KCl; 118 mM NaCl; 1.3 mM CaCl2.2H2O; 0.1% (w/v) BSA; pH 7.4). Monolayers were then washed and equilibrated for 5 min at 37° C. in 100 il KHB-BSA for subsequent recording of fluorescence as an index of intracellular [Ca^2+] ([Ca^2+]i) using a microplate reader (NOVOstar; BMG LABTECH, Aylesbury, U.K.). Briefly, 20 μl of KHB-BSA, with or without ligand, was added into the well (200 μl/s) and fluorescence determined at 0.5 s intervals by excitation at 485 nm and collection of emitted light at 520 nm. Changes in fluorescence above basal levels (before ligand addition) were determined. […] Fmax was obtained by removal of buffer and addition of KHB-BSA buffer containing 4 mM [Ca^2+] and ionomycin (2 μM) to representative wells and the fluorescence measured for 10 min. Fmin was then derived by replacing buffer with Ca^2+-free KHB-BSA buffer containing 2 mM EGTA and fluorescence measured for 10 min. For the determination of concentration-response relationships, the maximal change in [Ca^2+]i was calculated following ligand addition. Concentration-response curves were then fitted using a four-parameter logistic equation to determine EC50 values (GraphPad Software Inc., Calif.).

male DIO C57BL/6 mice [3] = test: Chronic in vivo experiments in DIO mice (body weight, food intake, gastric emptying); set-up: species or system mouse; conditions: for gastric emptying in experimental animals: s.c. 1603 nMole/kg, chronic regimen
Method: FIG. 4. Anorectic effects of NM4A in chronic in vivo experiments. (A) Ad libitum fed male DIO C57BL/6 mice were treated with either vehicle or NM4A (2.2 mg/kg; 1603 nMole/kg) every 2, 4 or 7 days for 21 days. (B) Ad libitum fed male DIO C57BL/6 mice were treated with either vehicle or NM4A (2.2 mg/kg; 1603 nMole/kg) once a week for 21 days. After initial treatment animals were kept either on high-fat diet (FD) or normal diet (ND).
FIG. 6. (A) Comparison of anorectic effects of NM4A & NM4-C16 analogs in chronic in vivo experiments. Ad libitum fed male DIO C57BL/6 mice were treated with either vehicle or NM4A (2.2 mg/kg; 1603 nMole/kg) or NM4-C16 (2.6 mg/kg; 1603 nMole/kg) every 7 days for 21 days. (B) Food intake of animals treated with NM4-C16 (2.6 mg/kg; 1603 nMole/kg) every 7 days for 21 days.
NM4A was characterized further in in vivo chronic experiments. Ad libitum fed male DIO C57BL/6 mice, which were kept on the high fat diet (Cat #D12492, Research Diets, Inc., New Brunswick, N.J.), were treated subcutaneously (s.c.) with either vehicle or NM4A (2.2 mg/kg; 1603 nMole/kg) either every 2, 4 or 7 days for 21 days. […] To determine whether NM4A can be used as an auxiliary in dieting of the obese subjects we tested its efficiency in once weekly regimen at the 2.2 mg/kg dose. In this case, ad libitum fed male DIO C57BL/6 mice were kept either on the high fat diet (FD) or regular diet (ND) during NM4A's administration.
(§2) Despite limited success with our “double-lipidation” approach, we decided to test NM4-C16 analog in vivo using once weekly subcutaneous injection regimen at the 2.6 mg/kg dose, which is equimolar to previously used NM4A dose (e.g. 1603 nMole/kg).
All animal experiments were approved by the UCLA Animal Care and Use Committee (ARC #1999-173-23) and conformed to local and national guidelines. Ad libitum fed male DIO C57BL/6 mice (n=8 per group) kept on D12492, a high-fat diet composed of 60% Kcal from fat (Research Diets, Inc., New Brunswick, N.J.) were weighed and individually dosed (s.c., 30 min prior to the onset of the dark phase of the light cycle) with either vehicle or NM4A (2.2 mg/kg; 1603 nMole/kg) every 2 days or NM4A (2.2 mg/kg; 1603 nMole/kg) every 4 days or NM4A (2.2 mg/kg; 1603 nMole/kg) every 7 days or NM4-C16 (2.6 mg/kg; 1603 nMole/kg) every 7 days for 21 days and their food intake and body weight were measured daily. […] Briefly, calculated amount of the desired peptide (1 eq) and 10 equivalents of PUREBRIGHT® SL-220 (1 mg: 10 mg) were solubilized in minimal volume of 90% absolute ethyl alcohol in water. Subsequently solution was aliquoted into Eppendorf tubes and freeze-dried. Obtained solid residue was re-solubilized in the proper amount of PBS directly before use by vortexing.

male DIO C57BL/6 mice [4] = test: Abdominal fat evaluation of chronically treated animals; assay type: in vivo, mouse; conditions: chronic treatment 21 days, 1603 nMole/kg; vehicle ~8%
Method: (§3) FIG. 7. (A) Abdominal fat evaluation of chronically treated animals. Ad libitum fed male DIO C57BL/6 mice were treated with either vehicle or NM4A (2.2 mg/kg; 1603 nMole/kg) every 2 days or NM4A (2.2 mg/kg; 1603 nMole/kg) every 4 days or ^(*)NM4-C16 (2.6 mg/kg; 1603 nMole/kg) every 7 days for 21 days. Subsequently, their abdominal fat was harvested and weighted. Results are expressed as % of abdominal fat per total body weight. (B) Distribution of NM4A in NM4A chronically treated animals (2.2 mg/kg; every 2 days for 28 days).
For three groups of animals treated every 2, 4 and 7 days we also performed abdominal fat evaluation (FIG. 7A).

male DIO C57BL/6 mice [5] = test: Hematological parameters of animals treated with NM4-C16; assay type: in vivo, mouse; conditions: 2.6 mg/kg every 7 days for 21 days
Method: as §2

Water solubility = assay type: physicochemical
[6] = test system: diet induced obese (DIO) mouse model; test: Single dose in vivo anorectic experiments in DIO mouse model; conditions: DIO mice
From the text: FIG. 3. Single dose in vivo experiments performed in DIO mouse model. (A) Comparison of anorectic effects of NM4 and NM7. (B) NM4 dose response experiments. (C) Comparison of NM4 and NM4A anorectic activity.
Initially we focused on single dose experiments comparing NM4 and NM7 at 5344 nMole/kg dose (FIG. 3).

[7] = Body distribution of NM4A in chronically treated animals; assay type: in vivo, mouse; conditions: 2.2 mg/kg every 2 days for 28 days
Method: as §3
To test body distribution of NM-analogs we performed also limited ADME studies in animals that underwent chronic treatment with NM4A every 2 days for 28 days (2.2 mg/kg; 1603 nMole/kg dose).
Ad libitum fed male DIO C57BL/6 mice that underwent chronic treatment with NM4A (2.2 mg/kg; 1603 nMole/kg; dosing every 2 days for 28 days) were sacrificed and their organs/tissues harvested and weighted. […] Obtained homogenate(s) were transferred to 1.5 mL Eppendorf tubes and centrifuged for 10 min at 13000 rpm.

T2 sequence (Q9GZQ4 whole entry): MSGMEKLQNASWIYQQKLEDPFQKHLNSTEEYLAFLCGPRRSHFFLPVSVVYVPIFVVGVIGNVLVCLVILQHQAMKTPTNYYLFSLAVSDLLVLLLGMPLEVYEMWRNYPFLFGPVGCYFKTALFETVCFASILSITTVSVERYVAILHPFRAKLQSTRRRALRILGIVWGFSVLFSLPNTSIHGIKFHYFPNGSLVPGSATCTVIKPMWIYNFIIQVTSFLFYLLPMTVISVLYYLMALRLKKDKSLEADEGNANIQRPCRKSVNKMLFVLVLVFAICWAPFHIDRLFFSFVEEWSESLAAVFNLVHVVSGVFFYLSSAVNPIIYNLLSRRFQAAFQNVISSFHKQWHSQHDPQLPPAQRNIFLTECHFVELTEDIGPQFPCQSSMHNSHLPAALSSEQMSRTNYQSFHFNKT

EC50 [1] | EC50 [2] | hematological parameters/blood cell count (male DIO C57BL/6 mice [5]) | water solubility (Water solubility) | Structure (SMILES) | body weight, once-weekly administration (male DIO C57BL/6 mice [3]; s.c. 2.6 mg/kg (1603 nMole/kg) every 7 days for 21 days) | gastric emptying in experimental animals (male DIO C57BL/6 mice [3]) | abdominal fat content (% of abdominal fat per total body weight) (male DIO C57BL/6 mice [4]) | body weight, once weekly regimen as auxiliary in dieting (male DIO C57BL/6 mice [3]; 2.2 mg/kg once a week for 21 days, high fat diet (FD) or regular diet (ND)) | anorectic effects, chronic treatment (male DIO C57BL/6 mice [3]; s.c. 2.2 mg/kg every 2 and every 4 days for 21 days, high fat diet) | anorectic effects, chronic treatment, less frequent dosage (male DIO C57BL/6 mice [3]; s.c. 2.2 mg/kg every 7 days for 21 days, high fat diet) | duration of anorectic effects after single dose administration ([6]; 1603 nMole/kg, 2.2 mg/kg) | in vivo activity relative to NM4 ([6]; single dose, FIG. 3C) | entry into the brain [7] | tissue with highest content [7]
3980 nM | 2690 nM |  |  | CC(C)C[C@H](NC(=O)[C@H](Cc1ccccc1)NC(=O)CCCCCNC(=O)[C@@H](N)CS)C(=O)N[C@@H](Cc1ccccc1)C(=O)N[C@@H](CCCNC(=N)N)C(=O)N1Cc2ccccc2C[C@H]1C(=O)N[C@@H](CCCNC(=N)N)C(=O)N[C@@H](CC(N)=O)C(=O)NCCCCCC(=O)N[C@@H](CS)C(N)=O [NM10, C-Ahx-FL-Phe-Arg-Tic-R-Asn-Ahx-C] (H-C[Ahx]FLFR[Tic]RN[Ahx]C-NH2) |  |  |  |  |  |  |  |  |  | 
3980 nM |  |  |  | CCCCCCCCCCCCCCCCSCc1cc2cc(c1)CSC[C@H](N)C(=O)NCCCCCC(=O)N[C@@H](Cc1ccccc1)C(=O)N[C@@H](CC(C)C)C(=O)N[C@@H](Cc1ccccc1)C(=O)N[C@@H](CCCNC(=N)N)C(=O)N1Cc3ccccc3C[C@H]1C(=O)N[C@@H](CCCNC(=N)N)C(=O)N[C@@H](CC(N)=O)C(=O)NCCCCCC(=O)N[C@H](C(N)=O)CSC2 [NM16, PalS-X(C-Ahx-FL-Phe-Arg-Tic-R-Asn-Ahx-C)] (H-C[Ahx]FLFR[Tic]RN[Ahx]C-NH2; linker 1-11 via mXylylene(5-CH2SC16H33)) |  |  |  |  |  |  |  |  |  | 
 | 741 ± 32 nM | appears to be normal | limited water solubility | CCCCCCCCCCCCCCCCN(CCCCCCCCCCCCCCCC)CCCCCC(=O)NC(C)(C)C(=O)N[C@@H](Cc1ccccc1)C(=O)N[C@@H](CC(C)C)C(=O)N[C@@H](Cc1ccccc1)C(=O)N[C@@H](CCCNC(=N)N)C(=O)N1CCC[C@H]1C(=O)N[C@@H](CCCNC(=N)N)C(=O)N[C@@H](CC(N)=O)C(N)=O [Peptide M4-C16, (c16)2-Ahx-Aib-FL-Phe-Arg-Pro-R-Asn] (X1-[Aib]FLFRPRN-NH2) | sustained weight loss | very limited gastric emptying | ~5% |  |  |  |  |  |  | 
 | 6.46 ± 0.89 nM |  | limited water solubility | CCCCCCCCCCCCCCCCNC(=O)CNCC(=O)NC(C)(C)C(=O)N[C@@H](Cc1ccccc1)C(=O)N[C@@H](CC(C)C)C(=O)N[C@@H](Cc1ccccc1)C(=O)N[C@@H](CCCNC(=N)N)C(=O)N1CCC[C@H]1C(=O)N[C@@H](CCCNC(=N)N)C(=O)N[C@@H](CC(N)=O)C(N)=O [Peptide M4A, Ida^NHPal-Aib-FL-Phe-Arg-Pro-R-Asn] |  | causes initially gastric emptying | ~5% | additional body weight decrease | potent anorectic effects | limited activity | ≤ 20 days | at least 3.5 times | does not appear to enter the brain effectively | highest content of NM4A is detected in plasma
